For experiment [1], the target named is Metabotropic glutamate receptor 6 (Homo sapiens) (UniProt O15303). In words: Compound was evaluated for its agonist activity against mGluR6 in Chinese hamster ovary (CHO) cells at a concentration of 300 uM. It is filed as functional, cell-based.
For the next experiment, the species on record is Rattus norvegicus. In words: Compound was evaluated for its antagonist activity and inhibition of forskolin-stimulated cAMP formation by L-AP4 (10 uM), in adult rat cortical slices. It is filed as functional. In general terms: Changes in cAMP serve as a functional read-out for many G protein-coupled receptors.
Experiment [2] concerns the target Metabotropic glutamate receptor 6 (Homo sapiens) (UniProt O15303). In words: Compound was evaluated for its agonist activity against mGluR6 in Chinese hamster ovary (CHO) cells; Inactive. The experiment is classed as functional, cell-based.

Activity calls are given as the source filed them. The calls are words filed in the database; no cut-off is given here.

Metabotropic glutamate receptor 6 (Homo sapiens), sequence (O15303 whole entry): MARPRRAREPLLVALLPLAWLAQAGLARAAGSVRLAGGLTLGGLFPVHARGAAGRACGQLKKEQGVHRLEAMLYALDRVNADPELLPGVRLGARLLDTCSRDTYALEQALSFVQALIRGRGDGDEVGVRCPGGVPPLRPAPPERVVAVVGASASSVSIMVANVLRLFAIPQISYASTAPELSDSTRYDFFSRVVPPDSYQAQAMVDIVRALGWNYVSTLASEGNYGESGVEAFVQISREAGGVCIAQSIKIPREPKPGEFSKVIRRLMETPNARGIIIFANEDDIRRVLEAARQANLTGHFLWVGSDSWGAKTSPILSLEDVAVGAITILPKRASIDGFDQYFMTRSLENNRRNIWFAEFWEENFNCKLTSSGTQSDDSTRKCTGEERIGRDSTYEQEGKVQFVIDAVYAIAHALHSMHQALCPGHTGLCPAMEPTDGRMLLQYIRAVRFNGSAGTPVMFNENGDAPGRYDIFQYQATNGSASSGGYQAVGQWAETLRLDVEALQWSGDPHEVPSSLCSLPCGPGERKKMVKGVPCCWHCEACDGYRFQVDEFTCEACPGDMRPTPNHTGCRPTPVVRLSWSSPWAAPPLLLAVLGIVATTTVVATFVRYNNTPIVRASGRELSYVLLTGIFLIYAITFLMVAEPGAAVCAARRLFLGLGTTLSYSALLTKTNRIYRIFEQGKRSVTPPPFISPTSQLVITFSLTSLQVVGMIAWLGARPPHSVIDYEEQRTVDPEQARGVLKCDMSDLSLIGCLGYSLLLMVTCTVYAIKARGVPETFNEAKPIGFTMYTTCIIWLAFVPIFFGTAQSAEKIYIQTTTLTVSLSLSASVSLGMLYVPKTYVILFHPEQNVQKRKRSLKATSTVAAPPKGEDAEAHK

Broadly, the inhibition is the change of the read-out against control, counted positive when it falls. For `C[C@](N)(Cc1cccc(P(=O)(O)O)c1)C(=O)O`, the inhibition in experiment [1] was 27%.

The IC50 is the midpoint of a concentration-inhibition curve. Consider `C[C@](N)(Cc1cccc(C(=O)O)c1)C(=O)O`, for which the IC50 in the experiment filed under Rattus norvegicus is 1000 nM.

`C[C@@]1(C(=O)O)Cc2cc(C(=O)O)ccc2CN1`: the inhibition result in experiment [2] was “inactive”.
